This is an account of results in PMC9133015 (Nature Communications, 2022).

What all share (test): Kinase inhibitor specificity profiling (Reaction Biology Corporation)
Holding throughout (format): biochemical
Common to all, as to set-up: % Enzyme Activity (relative to DMSO controls): concentration or dose not given beside the values

Assay [1] has as its target T1, panel of 370 protein kinases (Homo sapiens, UniProt Q8NEV4).
T1 construct: purchased Reaction Biology Corporation (assay service)
The conditions noted are these: 2 h, kinase MYO3A; read-out: % Enzyme Activity (relative to DMSO controls).

Assay [2] has as its target T2, panel of 370 protein kinases (Homo sapiens, UniProt Q9Y6M4).
T2 construct: purchased Reaction Biology Corporation (assay service)
Conditions: kinase CK1G3.

Assay [3] addresses T3, panel of 370 protein kinases (Homo sapiens, UniProt P29597).
T3 construct: purchased Reaction Biology Corporation (assay service)
Conditions: kinase TYK2.

Assay [4] has as its target T4, panel of 370 protein kinases (Homo sapiens, UniProt P08631).
T4 construct: purchased Reaction Biology Corporation (assay service)
The conditions noted are these: 2 h, kinase HCK; read-out: % Enzyme Activity (relative to DMSO controls).

The target in assay [5] is T5, panel of 370 protein kinases (Homo sapiens, UniProt P07333).
T5 construct: purchased Reaction Biology Corporation (assay service)
The conditions noted are these: 2 h, kinase FMS; read-out: % Enzyme Activity (relative to DMSO controls).

The target in assay [6] is T6, panel of 370 protein kinases (Homo sapiens, UniProt P22455).
T6 construct: purchased Reaction Biology Corporation (assay service)
The conditions noted are these: 2 h, kinase FGFR4; read-out: % Enzyme Activity (relative to DMSO controls).

In assay [7] the target is T7, panel of 370 protein kinases (Homo sapiens, UniProt Q13233).
T7 construct: purchased Reaction Biology Corporation (assay service)
Conditions: 2 h, kinase MEKK1; read-out: % Enzyme Activity (relative to DMSO controls).

Assay [8] addresses T8, panel of 370 protein kinases (Homo sapiens, UniProt Q9BXA6).
T8 construct: purchased Reaction Biology Corporation (assay service)
Conditions: 2 h, kinase SSTK/TSSK6; read-out: % Enzyme Activity (relative to DMSO controls).

Assay [9] deals with T9, panel of 370 protein kinases (Homo sapiens, UniProt O75385).
T9 construct: purchased Reaction Biology Corporation (assay service)
Conditions: kinase ULK1.

In assay [10] the target is T10, panel of 370 protein kinases (Homo sapiens, UniProt Q9UPE1).
T10 construct: purchased Reaction Biology Corporation (assay service)
The conditions noted are these: 2 h, kinase MSSK1/STK23; read-out: % Enzyme Activity (relative to DMSO controls).

In assay [11] the target is T11, panel of 370 protein kinases (Homo sapiens, UniProt O00141).
T11 construct: purchased Reaction Biology Corporation (assay service)
The conditions noted are these: 2 h, kinase SGK1; read-out: % Enzyme Activity (relative to DMSO controls).

The target in assay [12] is T12, panel of 370 protein kinases (Homo sapiens, UniProt P51956).
T12 construct: purchased Reaction Biology Corporation (assay service)
Conditions: 2 h, kinase NEK3; read-out: % Enzyme Activity (relative to DMSO controls).

The target in assay [13] is T13, panel of 370 protein kinases (Homo sapiens, UniProt Q13043).
T13 construct: purchased Reaction Biology Corporation (assay service)
Conditions: kinase MST1/STK4.

For assay [14], the target named is T14, panel of 370 protein kinases (Homo sapiens, UniProt Q13882).
T14 construct: purchased Reaction Biology Corporation (assay service)
Conditions: 2 h, kinase BRK; read-out: % Enzyme Activity (relative to DMSO controls).

For assay [15], the target named is T15, panel of 370 protein kinases (Homo sapiens, UniProt Q9NWZ3).
T15 construct: purchased Reaction Biology Corporation (assay service)
The conditions noted are these: kinase IRAK4.

The target of assay [16] is T16, panel of 370 protein kinases (Homo sapiens, UniProt O43318).
T16 construct: purchased Reaction Biology Corporation (assay service)
The conditions noted are these: 2 h, kinase TAK1; read-out: % Enzyme Activity (relative to DMSO controls).

The target of assay [17] is T17, panel of 370 protein kinases (Homo sapiens, UniProt Q00534).
T17 construct: purchased Reaction Biology Corporation (assay service)
The conditions noted are these: 2 h, read-out: % Enzyme Activity (relative to DMSO controls).

Assay [18] addresses T18, panel of 370 protein kinases (Homo sapiens, UniProt P28482).
T18 construct: purchased Reaction Biology Corporation (assay service)
The conditions noted are these: 2 h, kinase ERK2/MAPK1; read-out: % Enzyme Activity (relative to DMSO controls).

Assay [19] concerns the target T19, panel of 370 protein kinases (Homo sapiens, UniProt Q9NY57).
T19 construct: purchased Reaction Biology Corporation (assay service)
The conditions noted are these: 2 h, kinase STK32B/YANK2; read-out: % Enzyme Activity (relative to DMSO controls).

The target of assay [20] is T20, panel of 370 protein kinases (Homo sapiens, UniProt P80192).
T20 construct: purchased Reaction Biology Corporation (assay service)
The conditions noted are these: 2 h, kinase MLK1/MAP3K9; read-out: % Enzyme Activity (relative to DMSO controls).

Assay [21] has as its target T21, panel of 370 protein kinases (Homo sapiens, UniProt Q16644).
T21 construct: purchased Reaction Biology Corporation (assay service)
The conditions noted are these: 2 h, kinase MAPKAPK3; read-out: % Enzyme Activity (relative to DMSO controls).

The target of assay [22] is T22, panel of 370 protein kinases (Homo sapiens, UniProt Q9Y2H1).
T22 construct: purchased Reaction Biology Corporation (assay service)
Conditions: 2 h, kinase STK38L/NDR2; read-out: % Enzyme Activity (relative to DMSO controls).

Values joined by “and” are separate entries in the source; they are usually repeats but may differ in a detail not shown here. Equal entries are not always repeated. Where two headings read alike, the source gives them in different places.

T9 sequence (O75385 whole entry): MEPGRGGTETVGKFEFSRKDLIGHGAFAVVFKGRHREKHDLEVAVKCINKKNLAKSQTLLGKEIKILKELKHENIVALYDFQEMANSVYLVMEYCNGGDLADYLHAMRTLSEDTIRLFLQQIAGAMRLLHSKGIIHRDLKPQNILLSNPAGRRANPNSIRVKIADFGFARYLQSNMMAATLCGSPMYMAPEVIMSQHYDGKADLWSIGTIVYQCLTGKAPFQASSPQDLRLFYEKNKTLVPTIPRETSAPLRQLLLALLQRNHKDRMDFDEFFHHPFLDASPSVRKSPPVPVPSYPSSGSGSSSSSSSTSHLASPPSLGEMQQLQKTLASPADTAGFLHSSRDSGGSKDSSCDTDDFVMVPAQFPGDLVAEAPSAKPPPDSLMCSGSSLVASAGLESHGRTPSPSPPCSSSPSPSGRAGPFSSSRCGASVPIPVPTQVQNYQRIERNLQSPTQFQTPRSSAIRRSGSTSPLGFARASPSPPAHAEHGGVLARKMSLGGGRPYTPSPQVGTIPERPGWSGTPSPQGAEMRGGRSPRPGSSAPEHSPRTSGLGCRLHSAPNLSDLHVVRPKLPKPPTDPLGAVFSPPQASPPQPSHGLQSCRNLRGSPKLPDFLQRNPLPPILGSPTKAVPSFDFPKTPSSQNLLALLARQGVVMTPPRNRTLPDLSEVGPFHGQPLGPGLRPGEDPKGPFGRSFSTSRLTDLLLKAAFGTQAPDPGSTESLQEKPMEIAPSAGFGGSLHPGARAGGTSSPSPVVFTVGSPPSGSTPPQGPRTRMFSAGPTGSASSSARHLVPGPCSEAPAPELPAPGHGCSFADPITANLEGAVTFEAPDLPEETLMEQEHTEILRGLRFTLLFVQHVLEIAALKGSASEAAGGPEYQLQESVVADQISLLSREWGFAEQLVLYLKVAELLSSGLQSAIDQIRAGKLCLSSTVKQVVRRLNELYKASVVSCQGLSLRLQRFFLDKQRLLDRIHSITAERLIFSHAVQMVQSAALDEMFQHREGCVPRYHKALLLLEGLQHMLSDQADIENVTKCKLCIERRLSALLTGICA
T15 sequence (Q9NWZ3 whole entry): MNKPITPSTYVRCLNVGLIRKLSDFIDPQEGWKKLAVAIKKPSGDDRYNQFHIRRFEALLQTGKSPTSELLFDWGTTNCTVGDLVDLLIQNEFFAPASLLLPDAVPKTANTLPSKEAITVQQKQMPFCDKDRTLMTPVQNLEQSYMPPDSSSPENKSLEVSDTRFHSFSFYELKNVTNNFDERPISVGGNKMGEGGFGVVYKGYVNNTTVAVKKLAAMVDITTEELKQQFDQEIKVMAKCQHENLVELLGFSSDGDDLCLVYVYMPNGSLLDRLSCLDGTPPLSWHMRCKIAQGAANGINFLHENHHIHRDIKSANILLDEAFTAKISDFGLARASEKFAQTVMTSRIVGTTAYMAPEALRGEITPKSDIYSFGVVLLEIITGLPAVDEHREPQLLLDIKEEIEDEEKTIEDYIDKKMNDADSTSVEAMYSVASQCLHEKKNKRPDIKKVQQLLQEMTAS
T17 sequence (Q00534 whole entry): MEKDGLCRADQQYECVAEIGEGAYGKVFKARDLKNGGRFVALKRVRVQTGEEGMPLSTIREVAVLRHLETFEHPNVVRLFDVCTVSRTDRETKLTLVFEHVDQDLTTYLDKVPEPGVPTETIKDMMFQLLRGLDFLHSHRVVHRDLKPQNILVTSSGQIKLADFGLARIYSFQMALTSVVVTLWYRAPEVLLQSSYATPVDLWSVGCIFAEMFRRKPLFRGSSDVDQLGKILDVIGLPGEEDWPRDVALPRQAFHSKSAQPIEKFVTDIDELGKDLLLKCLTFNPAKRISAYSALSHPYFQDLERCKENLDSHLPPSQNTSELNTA
T13 sequence (Q13043 whole entry): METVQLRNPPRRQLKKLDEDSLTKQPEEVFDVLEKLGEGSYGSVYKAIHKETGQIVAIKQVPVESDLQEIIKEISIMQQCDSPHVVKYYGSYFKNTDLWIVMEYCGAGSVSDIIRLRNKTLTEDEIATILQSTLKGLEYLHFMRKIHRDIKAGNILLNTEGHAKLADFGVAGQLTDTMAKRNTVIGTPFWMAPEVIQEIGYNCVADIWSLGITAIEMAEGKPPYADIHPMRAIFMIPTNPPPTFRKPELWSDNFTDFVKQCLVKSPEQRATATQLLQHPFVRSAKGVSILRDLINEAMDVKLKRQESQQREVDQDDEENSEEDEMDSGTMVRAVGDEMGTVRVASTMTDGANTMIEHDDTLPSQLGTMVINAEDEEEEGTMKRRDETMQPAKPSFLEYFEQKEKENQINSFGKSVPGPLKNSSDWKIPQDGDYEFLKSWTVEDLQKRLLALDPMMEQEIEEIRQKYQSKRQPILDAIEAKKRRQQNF
T2 sequence (Q9Y6M4 whole entry): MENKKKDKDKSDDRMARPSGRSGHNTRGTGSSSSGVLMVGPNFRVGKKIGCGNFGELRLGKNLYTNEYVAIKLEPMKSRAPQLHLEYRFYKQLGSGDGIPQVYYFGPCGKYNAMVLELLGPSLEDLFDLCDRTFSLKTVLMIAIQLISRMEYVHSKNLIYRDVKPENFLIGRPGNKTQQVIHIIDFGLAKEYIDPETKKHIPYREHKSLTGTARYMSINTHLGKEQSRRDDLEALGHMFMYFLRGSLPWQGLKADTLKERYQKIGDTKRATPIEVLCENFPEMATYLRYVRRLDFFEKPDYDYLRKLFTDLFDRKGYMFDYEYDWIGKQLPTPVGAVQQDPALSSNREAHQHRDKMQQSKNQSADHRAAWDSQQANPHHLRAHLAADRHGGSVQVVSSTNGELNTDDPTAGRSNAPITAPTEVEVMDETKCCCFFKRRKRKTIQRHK
T3 sequence (P29597 whole entry): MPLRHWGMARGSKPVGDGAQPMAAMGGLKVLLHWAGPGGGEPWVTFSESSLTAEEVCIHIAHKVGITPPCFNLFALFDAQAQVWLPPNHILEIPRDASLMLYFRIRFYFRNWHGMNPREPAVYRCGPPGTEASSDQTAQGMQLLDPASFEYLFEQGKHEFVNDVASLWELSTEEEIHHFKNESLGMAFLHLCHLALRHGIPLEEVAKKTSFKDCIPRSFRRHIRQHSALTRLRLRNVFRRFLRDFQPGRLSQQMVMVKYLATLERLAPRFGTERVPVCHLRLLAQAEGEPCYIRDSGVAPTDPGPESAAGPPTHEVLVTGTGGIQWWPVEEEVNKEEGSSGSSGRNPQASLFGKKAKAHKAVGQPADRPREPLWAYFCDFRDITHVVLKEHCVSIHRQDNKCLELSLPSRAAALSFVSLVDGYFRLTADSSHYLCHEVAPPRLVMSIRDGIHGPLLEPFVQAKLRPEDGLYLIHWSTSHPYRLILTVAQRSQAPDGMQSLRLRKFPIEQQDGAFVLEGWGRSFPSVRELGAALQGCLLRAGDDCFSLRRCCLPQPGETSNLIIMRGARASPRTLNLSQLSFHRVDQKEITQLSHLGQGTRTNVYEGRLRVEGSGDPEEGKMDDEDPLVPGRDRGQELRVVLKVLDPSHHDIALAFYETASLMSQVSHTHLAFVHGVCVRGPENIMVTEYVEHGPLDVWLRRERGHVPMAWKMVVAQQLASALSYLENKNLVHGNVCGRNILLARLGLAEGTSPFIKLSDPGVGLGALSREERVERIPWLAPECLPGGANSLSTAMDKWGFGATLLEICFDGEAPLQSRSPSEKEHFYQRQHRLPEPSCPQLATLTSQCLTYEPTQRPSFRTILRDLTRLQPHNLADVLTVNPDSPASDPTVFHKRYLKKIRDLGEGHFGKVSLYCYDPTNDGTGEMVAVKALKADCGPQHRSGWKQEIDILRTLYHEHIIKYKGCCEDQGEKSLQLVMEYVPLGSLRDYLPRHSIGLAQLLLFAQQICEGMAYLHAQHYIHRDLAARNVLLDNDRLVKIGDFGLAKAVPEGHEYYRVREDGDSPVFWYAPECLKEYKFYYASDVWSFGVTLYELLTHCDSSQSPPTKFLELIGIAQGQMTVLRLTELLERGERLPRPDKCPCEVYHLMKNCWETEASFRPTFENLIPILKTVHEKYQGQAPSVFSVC
T19 sequence (Q9NY57 whole entry): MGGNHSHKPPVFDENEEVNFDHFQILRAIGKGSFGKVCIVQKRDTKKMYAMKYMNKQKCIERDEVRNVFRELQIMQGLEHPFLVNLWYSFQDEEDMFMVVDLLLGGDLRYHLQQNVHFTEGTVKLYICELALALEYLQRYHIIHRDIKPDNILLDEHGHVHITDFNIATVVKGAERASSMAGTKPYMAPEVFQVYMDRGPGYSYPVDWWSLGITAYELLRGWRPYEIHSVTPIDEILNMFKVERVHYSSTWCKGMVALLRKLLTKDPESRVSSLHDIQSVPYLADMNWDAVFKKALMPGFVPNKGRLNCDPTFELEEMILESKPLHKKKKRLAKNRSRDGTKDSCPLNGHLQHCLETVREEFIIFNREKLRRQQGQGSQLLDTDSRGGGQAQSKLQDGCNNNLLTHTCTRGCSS
T12 sequence (P51956 whole entry): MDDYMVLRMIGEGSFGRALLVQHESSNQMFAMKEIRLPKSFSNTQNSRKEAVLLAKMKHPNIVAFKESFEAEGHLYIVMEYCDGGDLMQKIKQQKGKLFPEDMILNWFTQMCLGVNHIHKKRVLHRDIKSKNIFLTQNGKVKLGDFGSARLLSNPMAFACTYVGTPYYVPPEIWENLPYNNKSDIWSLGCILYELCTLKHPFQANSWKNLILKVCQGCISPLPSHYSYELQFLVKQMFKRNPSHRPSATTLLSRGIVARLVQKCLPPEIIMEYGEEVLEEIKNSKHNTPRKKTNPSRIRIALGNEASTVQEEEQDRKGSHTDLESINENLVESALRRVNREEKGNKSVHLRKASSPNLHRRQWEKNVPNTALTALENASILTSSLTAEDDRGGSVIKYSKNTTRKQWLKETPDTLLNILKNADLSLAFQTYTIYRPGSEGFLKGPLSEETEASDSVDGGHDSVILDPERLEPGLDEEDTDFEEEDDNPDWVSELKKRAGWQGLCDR

`CCN1CCN(C(=O)c2ccc(Nc3ncc(F)c(-c4ccc5nc(N(C)C)sc5c4)n3)nc2)CC1` [YK-2-69]: the remaining activity at 1 µM in assay [1] stood at 103%; in assay [4], 105%; in assay [5], 94.5%; in assay [6], 88.9%; in assay [7], 99.7%; in assay [8], 107%. Besides, the remaining activity at 1 µM in assay [10] was found to be 96.3%; in [11], 60.9%; in assay [12], 73.1%; in assay [14], 97.7%; in [16] it was 103%; in assay [17] (kinase CDK6/cyclin D1) it was 8.21%. In addition, the remaining activity at 1 µM was 71.9% in assay [17] (kinase CDK6/cyclin D3); 101% in assay [18]; 103% in assay [19]; 111% in assay [20]; 116% in assay [21]; 95.4% in assay [22]. Also, the “% Enzyme Activity (relative to DMSO controls)” value in assay [2] is 114.34% and 110.21%; in assay [3] it was 89.12% and 88.94%; in assay [9] it was 101.30% and 99.93%; in assay [13], 107.26% and 103.88%; in [15] it was 99.99% and 96.94%.
